According to patent publication EP1634598A1, “Use of piperazine derivatives and analogues for the manufacture of a medicament for the prophylaxis and/or treatment of disorders of food ingestion” (LABORATORIOS DEL DR. ESTEVE, S.A., priority 2004, dated 2006):

How the values were obtained:
Obese Rats (DIO) = assay: Chronical treatment of obese rats (DIO); type: in vivo; conditions: 50 mg/Kg i.p., one injection per day for 9 days, followed for 10 more days, compared to Saline, data only in Figures 1 to 4
Procedure: Obese Rats (DIO) were treated for 9 days intraperitoneally (i.p.) one injection per day with Saline, with BD-1063 at 50 mg/Kg and PRE-084 at 25 mg /Kg, a well known […]. During that time each day and at some points during the following 10 days the weight giving the difference in weight (referring to the day of starting the treatment) was determined, as were the blood glucose levels, blood level of cholesterol, blood level of Triglycerides (TG).

[1] = test system: a selection of other relevant receptors; conditions: according to US2003/0171347A1, page 7, table2 and page 8, table 3; cited from earlier work

| Compound | effect on the weight (in weight difference), blood glucose levels, blood level of cholesterol, blood level of Triglycerides (TG) (Obese Rats (DIO)) | binding to a selection of other relevant receptors [1] |
| --- | --- | --- |
| CN1CCN(CCc2ccc(Cl)c(Cl)c2)CC1 [BD-1063, 1-(3,4-dichlorophenethyl)-4-methylpiperazine] | highly effective | no or only slight binding |
| CN(C)CCN(C)CCc1ccc(Cl)c(Cl)c1 [BD-1047, N1-(3,4-dichlorophenethyl)-N1,N2,N2-trimethylethane-1,2-diamine] |  | no or only slight binding |
